The source of these data is patent US10501479B2, “Benzenesulfonyl-asymmetric ureas and medical uses thereof” (HELSINN HEALTHCARE SA, priority 2016, dated 2019).

The target in test [1] is T1, GHSR-1a (HEK293/GHSR1a cell line) (Homo sapiens, UniProt Q92847).
T1 construct: expressed in transfected cells; host or cells: HEK293/GHSR1a cell line
Nature of the test: Ghrelin antagonist potency (IC50) with calcium FLIPR assay, ghrelin 10 nM. In kind it is cell-based. The settings on record: ghrelin antagonist potency. Summed up:
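Cells seeded 24 h before the run were loaded with calcium dye for 30-60 min at room temperature or 37° C. For agonism, compound was added at t=20 sec and the calcium signal followed for 2 minutes. For antagonism, compound plus ghrelin (10 nM) went on at t=20 sec, and IC50 reflected the drop in ghrelin response.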

In test [2] the target is T2, recombinant human ghrelin receptor (HEK293/GRLN) (Homo sapiens, UniProt Q92847).
T2 construct: expressed in transfected cells
Nature of the test: Ghrelin inverse agonist potency (EC50) with IP-1 (IP-One HTRF) assay. In kind it is cell-based. The note with it: IP-1 assay. The protocol: Evaluation of Ghrelin Inverse Agonist Potency (EC50) with IP-1 Assay:
HEK293 cells stably expressing recombinant human ghrelin receptor (HEK293/GRLN) were used in the IP-One HTRF assay. One day before the test, cells were seeded at a density of 1.5×10^4/well in a Matrigel® coated 384-well plate with 30 μL of complete Dulbecco's Modified Eagle's Medium and incubated at 37° C. in 5% CO2 for 18-22 hours. On the test day, the medium was removed by centrifugation at 600 rpm for 30 seconds, and 20 μL of stimulation buffer containing 1x tested compound was added with Bravo (Agilent technologies). The plate was then incubated at 37° C. 5% CO2 for 1 hour. After the incubation, 5 μL of IP1-d2 and 5 μL of Tb-Cryp were added to all wells using multidrop Combi(Thermo). After additional incubation at room temperature for 1 hour, the plates were read on Envision with 620 and 665 (Perkin Elmer).
For orientation: TR-FRET usually uses a lanthanide donor and a delayed reading to cut background.

Where [3] appears, read: inverse agonist potency, read-out: EC50 (Activity).

A word on the IC50: it is the concentration that inhibits the measured activity by half. As usually defined, the EC50 is the concentration giving half of the maximal effect.

Values joined by “and” are separate entries in the source; they are usually repeats but may differ in a detail not shown here. Equal values may be shown once. Where a name gives a salt, the structure may show the parent alone. Read-outs that look alike come from different tables or passages of the source.

T2 sequence (Q92847 whole entry): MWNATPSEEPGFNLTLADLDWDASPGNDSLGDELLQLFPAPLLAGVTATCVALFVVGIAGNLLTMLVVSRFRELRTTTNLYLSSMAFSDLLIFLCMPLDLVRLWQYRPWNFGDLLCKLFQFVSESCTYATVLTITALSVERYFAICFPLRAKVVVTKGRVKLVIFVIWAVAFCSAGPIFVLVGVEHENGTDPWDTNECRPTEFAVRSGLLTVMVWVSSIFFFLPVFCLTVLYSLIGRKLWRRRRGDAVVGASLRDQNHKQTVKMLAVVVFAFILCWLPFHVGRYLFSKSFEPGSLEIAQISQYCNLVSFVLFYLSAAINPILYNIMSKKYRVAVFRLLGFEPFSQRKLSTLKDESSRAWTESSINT
T1 sequence (Q92847 whole entry): as above

With `CC(c1ccc2c(c1)CCNC2)S(=O)(=O)c1ccc(NC(=O)N[C@@H](C)c2cccc(Cl)c2Cl)cc1` (stereo partly drawn) [H1102, 1-((S)-1-(2,3-dichlorophenyl)ethyl)-3-(4-((1-(1,2,3,4-tetrahydroisoquinolin-6-yl)ethyl)sulfonyl)phenyl)urea hydrochloride], the IC50 in test [1] (read-out: IC50 (Activity)) was 73.9 nM. Further, the EC50 in test [2] (setting [3]) is 58.3 nM and 21.6 nM.
For the compound `C[C@H](NC(=O)Nc1ccc(S(=O)(=O)Nc2ccc(N)nn2)cc1)c1cccc(Cl)c1Cl` [H1129, (S)-N-(6-aminopyridazin-3-yl)-4-(3-(1-(2,3-dichlorophenyl)ethyl)ureido) benzenesulfonamide], the IC50 in test [1] (read-out: IC50 (Activity)) turned out to be 3330 nM. Also, in test [2] (setting [3]), the EC50 was determined as 2460 nM.
In the case of `CC(c1ccccc1)N(O)C(=O)Nc1ccc(S(=O)(=O)Cc2ccc3c(c2)CN(C)C3)cc1` (stereo not shown) [H1527, 1-hydroxy-3-(4-(((2-methylisoindolin-5-yl)methyl)sulfonyl)phenyl)-1-(1-phenylethyl)urea], the IC50 in test [1] (read-out: Activity IC50) is 130 nM. Further, in test [2] (ghrelin inverse agonist potency, read-out: Activity EC50), the EC50 was found to be 34 nM.
Consider `CC(C)NC(=O)Nc1ccc(S(=O)(=O)Cc2ccc3c(c2)CNC3)cc1` [H1178, 1-(4-((isoindolin-5-ylmethyl)sulfonyl)phenyl)-3-isopropylurea], for which the IC50 in test [1] (read-out: IC50 (Activity)) came to 4890 nM. For the same compound, the EC50 in test [2] (setting [3]) was found to be 1020 nM.
`CC(NC(=O)Nc1ccc(S(=O)(=O)Nc2ccc(CO)cc2)cc1)c1ccccc1` (stereo not shown) [H1141, N-(4-(hydroxymethyl)phenyl)-4-(3-(1-phenylethyl)ureido) benzenesulfonamide]: the IC50 in test [1] (read-out: IC50 (Activity)) is 2610 nM. Further, the EC50 in test [2] (setting [3]) was 562 nM.
Regarding `COc1ccc([C@H](C)NC(=O)Nc2ccc(S(=O)(=O)Nc3ccc4c(c3)CCN(C(C)=O)C4)cc2)c(Cl)c1Cl` [H1034, (S)-N-(2-acetyl-1,2,3,4-tetrahydroisoquinolin-6-yl)-4-(3-(1-(2,3-dichloro-4-methoxyphenyl)ethyl)ureido) benzenesulfonamide], the IC50 in test [1] (read-out: IC50 (Activity)) was 1260 nM. Moreover, in test [2] (setting [3]), the concentration giving a half-maximal response (EC50) was 1610 nM.
For the compound `C[C@H](NC(=O)Nc1ccc(S(=O)(=O)Cc2ccc3c(c2)COC3)cc1)c1cccc(Cl)c1Cl` [H1098, (S)-1-(1-(2,3-dichlorophenyl)ethyl)-3-(4-(((1,3-dihydroisobenzofuran-5-yl)methyl)sulfonyl)phenyl)urea], the IC50 in test [1] (read-out: IC50 (Activity)) stood at 12100 nM. For the same compound, the EC50 in test [2] (setting [3]) was 649 nM.
The corresponding values for `CC(C)C(C)NC(=O)Nc1ccc(S(=O)(=O)Cc2ccc3c(c2)CN(C)C3)cc1` (stereo not shown) [H1229, 1-(3-methylbutan-2-yl)-3-(4-(((2-methylisoindolin-5-yl)methyl)sulfonyl)phenyl)urea] are 291 nM and 369 nM.
Turning to `CCN1Cc2ccc(C(C)(C)S(=O)(=O)c3ccc(NC(=O)NC(C)c4ccccc4)cc3)cc2C1` (stereo not shown) [H1232, 1-(4-((2-(2-ethylisoindolin-5-yl)propan-2-yl)sulfonyl)phenyl)-3-(1-phenylethyl)urea], in test [1] (read-out: IC50 (Activity)), the IC50 was above 30000 nM. Besides, the EC50 in test [2] (setting [3]) came to 310 nM.
The corresponding values for `CC(NC(=O)Nc1ccc(S(=O)(=O)Nc2ccc(CO)cc2)cc1)c1cccc2ccccc12` (stereo not shown) [H1133, N-(4-(hydroxymethyl)phenyl)-4-(3-(1-(naphthalen-1-yl)ethyl)ureido) benzenesulfonamide] are 419 nM and 170 nM.
As to `CC(c1ccc2c(c1)CCNC2)S(=O)(=O)c1ccc(NC(=O)N[C@@H](C)c2cccc(Cl)c2Cl)cc1` (stereo partly drawn) [H1103, 1-((S)-1-(2,3-dichlorophenyl)ethyl)-3-(4-((1-(1,2,3,4-tetrahydroisoquinolin-6-yl)ethyl)sulfonyl)phenyl)urea hydrochloride], the IC50 in test [1] (read-out: IC50 (Activity)) worked out at 487 nM. Also, the EC50 in test [2] (setting [3]) is 66 nM.
For `C[C@H](NC(=O)Nc1ccc(S(=O)(=O)Cc2ccc3c(c2)CCNC3)cc1)c1ccccc1` [H1028, (S)-1-(1-phenylethyl)-3-(4-(((1,2,3,4-tetrahydroisoquinolin-6-yl)methyl)sulfonyl)phenyl)urea], in test [1] (read-out: IC50 (Activity)), the half-inhibitory concentration (IC50) is 414 nM. For the same compound, the EC50 in test [2] (setting [3]) was determined as 234 nM.
The like results for `O=C(Nc1ccccc1)Nc1ccc(S(=O)(=O)Cc2ccc3c(c2)CNC3)cc1` [H1190, 1-(4-((isoindolin-5-ylmethyl)sulfonyl)phenyl)-3-phenylurea] were, in that order, 264 nM and 317 nM.
The like results for `C[C@H](NC(=O)Nc1ccc(S(=O)(=O)Nc2ccc3c(c2)CCNC3)cc1)c1ccc(-c2cnccn2)c(Cl)c1Cl` [H1006, (S)-4-(3-(1-(2,3-dichloro-4-(pyrazin-2-yl)phenyl)ethyl)ureido)-N-(1,2,3,4-tetrahydroisoquinolin-6-yl)benzenesulfonamide] were, in that order, 72 nM and 36.9 nM.
The like results for `CN1Cc2ccc(CS(=O)(=O)c3ccc(NC(=O)NCC(C)(C)C)cc3)cc2C1` [H1228, 1-(4-(((2-methylisoindolin-5-yl)methyl)sulfonyl)phenyl)-3-neopentylurea] were, in that order, 766 nM and 1260 nM.
Take `O=C(NCc1ccsc1)Nc1ccc(S(=O)(=O)Cc2ccc3c(c2)CNC3)cc1` [H1217, 1-(4-((isoindolin-5-ylmethyl)sulfonyl)phenyl)-3-(thiophen-3-ylmethyl)urea]: the IC50 in test [1] (read-out: IC50 (Activity)) was 1450 nM. In addition, the EC50 in test [2] (setting [3]) was 1150 nM.
`COCc1ccc(CS(=O)(=O)c2ccc(NC(=O)N[C@@H](C)c3cccc(Cl)c3Cl)cc2)cc1` [H1093, (S)-1-(1-(2,3-dichlorophenyl)ethyl)-3-(4-((4-(methoxymethyl)benzyl)sulfonyl)phenyl)urea]: the concentration for half-maximal inhibition (IC50) in test [1] (read-out: IC50 (Activity)) worked out at 2380 nM. Further, the concentration giving a half-maximal response (EC50) in test [2] (setting [3]) turned out to be 327 nM.
For `COc1ccc(CNC(=O)Nc2ccc(S(=O)(=O)Cc3ccc4c(c3)CNC4)cc2)cc1` [H1203, 1-(4-((isoindolin-5-ylmethyl)sulfonyl)phenyl)-3-(4-methoxybenzyl)urea], in test [1] (read-out: IC50 (Activity)), the IC50 worked out at 447 nM. Besides, the 50% effective concentration (EC50) in test [2] (setting [3]) was 161 nM.
The corresponding values for `C[C@H](NC(=O)Nc1ccc(S(=O)(=O)Cc2ccc(COS(=O)(=O)O)cc2)cc1)c1cccc(Cl)c1Cl` [H1181, (S)-4-(((4-(3-(1-(2,3-dichlorophenyl)ethyl)ureido)phenyl)sulfonyl)methyl) benzyl hydrogen sulfate] are 3310 nM and 957 nM.
The corresponding values for `O=C(NCc1cccc(Cl)c1)Nc1ccc(S(=O)(=O)Cc2ccc3c(c2)CCNC3)cc1` [H1038, 1-(3-chlorobenzyl)-3-(4-(((1,2,3,4-tetrahydroisoquinolin-6-yl)methyl)sulfonyl)phenyl)urea] are 376 nM and 123 nM.
The corresponding values for `O=C(NCc1ccccc1)Nc1ccc(S(=O)(=O)Cc2ccc3c(c2)CCNC3)cc1` [H1029, 1-benzyl-3-(4-(((1,2,3,4-tetrahydroisoquinolin-6-yl)methyl)sulfonyl)phenyl)urea] are 332 nM and 188 nM.
On to `C[C@H](NC(=O)Nc1ccc(S(=O)(=O)Cc2cnc(N)nc2)cc1)c1cccc(Cl)c1Cl` [H1130, (S)-1-(4-(((2-aminopyrimidin-5-yl)methyl)sulfonyl)phenyl)-3-(1-(2,3-dichlorophenyl)ethyl)urea], for which, in test [1] (read-out: IC50 (Activity)), the IC50 stood at 3380 nM. In addition, the EC50 in test [2] (setting [3]) was 1280 nM.
For `C[C@H](NC(=O)Nc1ccc(S(=O)(=O)Cc2ccc3c(c2)CCN3)cc1)c1cccc(Cl)c1Cl` [H1047, (S)-1-(1-(2,3-dichlorophenyl)ethyl)-3-(4-((indolin-5-ylmethyl)sulfonyl)phenyl)urea], the concentration for half-maximal inhibition (IC50) in test [1] (read-out: IC50 (Activity)) is 865 nM. For the same compound, the EC50 in test [2] (setting [3]) came out at 1160 nM.
In the case of `CN(Cc1ccccc1)C(=O)Nc1ccc(S(=O)(=O)Cc2ccc3c(c2)CNC3)cc1` [H1204, 1-benzyl-3-(4-((isoindolin-5-ylmethyl)sulfonyl)phenyl)-1-methylurea], the 50% inhibitory concentration (IC50) in test [1] (read-out: IC50 (Activity)) came out at 692 nM. The EC50 in test [2] (setting [3]) was 624 nM.
The like results for `CC(NC(=O)Nc1ccc(S(=O)(=O)C(C)c2ccc3c(c2)CN(Cc2ccccc2)C3)cc1)c1ccccc1` (stereo not shown) [H1233, 1-(4-((1-(2-benzylisoindolin-5-yl)ethyl)sulfonyl)phenyl)-3-(1-phenylethyl)urea] were, in that order, 225 nM and 170 nM.
Turning to `C[C@H](NC(=O)Nc1ccc(S(=O)(=O)Cc2cccc(CO)c2)cc1)c1cccc(Cl)c1Cl` [H1088, (S)-1-(1-(2,3-dichlorophenyl)ethyl)-3-(4-((3-(hydroxymethyl)benzyl)sulfonyl)phenyl)urea], the IC50 in test [1] (read-out: IC50 (Activity)) came to 7970 nM. Further, the EC50 in test [2] (setting [3]) was found to be 367 nM.
